In US10092575B2, “Substituted thiophene- and furan-fused azolopyrimidine-5-(6H)-one compounds” (DART NEUROSCIENCE (CAYMAN) LTD., priority 2012, dated 2018):

These compounds were tested against human PDE1b enzyme (Homo sapiens (Human), UniProt Q01064) (assay: PDE1b inhibitory assay (IMAP TR-FRET)). Settings: not given.

SMILES	EC50 [nM]
COc1ccc(Cn2c(=O)n3ncnc3c3c4c(sc32)CN(Cc2ccc3c(c2)OC(F)(F)O3)CC4)cc1 [Example 114, 9-((2,2-Difluorobenzo[d][1,3]dioxol-5-yl)methyl)-6-(4-methoxybenzyl)-8,9,10,11-tetrahydropyrido[4′,3′:4,5]thieno[3,2-e][1,2,4]triazolo[1,5-c]pyrimidin-5 (6H)-one]	100 to 1000
COc1ccc(Cn2c(=O)n3ncnc3c3c4c(sc32)CN(C2CS(=O)(=O)C2)CC4)cc1 [Example 124, 9-(1,1-Dioxidothietan-3-yl)-6-(4-methoxybenzyl)-8,9,10,11-tetrahydropyrido[4′,3′:4,5]thieno[3,2-e][1,2,4]triazolo[1,5-c]pyrimidin-5 (6H)-one]	100 to 1000

Same assay, conditions: negative log of half-maximal molar inhibitory concentration; 200 nM FAM-cAMP; reported as ranges

SMILES	PDE1b (pEC50)
COc1ccc(Cn2c(=O)n3ncnc3c3c4c(sc32)CN(CC2(C)COC2)CC4)cc1 [Example 111, 6-(4-Methoxybenzyl)-9-((3-methyloxetan-3-yl)methyl)-8,9,10,11-tetrahydropyrido[4′,3′:4,5]thieno[3,2-e][1,2,4]triazolo[1,5-c]pyrimidin-5 (6H)-one]	>7
COc1ccc(Cn2c(=O)n3ncnc3c3c4c(sc32)CN(CCCSC)CC4)cc1 [Example 112, 6-(4-Methoxybenzyl)-9-(3-(methylthio)propyl)-8,9,10,11-tetrahydropyrido[4′,3′:4,5]thieno[3,2-e][1,2,4]triazolo[1,5-c]pyrimidin-5(6H)-one]	>7
COc1ccc(Cn2c(=O)n3ncnc3c3c4c(sc32)CN(CC2CCOC2)CC4)cc1 (stereo not drawn) [Example 113, 6-(4-Methoxybenzyl)-9-((tetrahydrofuran-3-yl)methyl)-8,9,10,11-tetrahydropyrido[4′,3′:4,5]thieno[3,2-e][1,2,4]triazolo[1,5-c]pyrimidin-5(6H)-one]	>7
COc1ccc(Cn2c(=O)n3ncnc3c3c4c(sc32)CN(CC(C)(C)C)CC4)cc1 [Example 115, 6-(4-Methoxybenzyl)-9-neopentyl-8,9,10,11-tetrahydropyrido[4′,3′:4,5]thieno[3,2-e][1,2,4]triazolo[1,5-c]pyrimidin-5(6H)-one]	>7
COc1ccc(Cn2c(=O)n3ncnc3c3c4c(sc32)CN(Cc2ncccn2)CC4)cc1 [Example 116, 6-(4-Methoxybenzyl)-9-(pyrimidin-2-ylmethyl)-8,9,10,11-tetrahydropyrido[4′,3′:4,5]thieno[3,2-e][1,2,4]triazolo[1,5-c]pyrimidin-5 (6H)-one]	>7
COc1ccc(Cn2c(=O)n3ncnc3c3c4c(sc32)CN(CC2CCCCO2)CC4)cc1 (stereo not drawn) [Example 117, 6-(4-Methoxybenzyl)-9-((tetrahydro-2H-pyran-2-yl)methyl)-8,9,10,11-tetrahydropyrido[4′,3′:4,5]thieno[3,2-e][1,2,4]triazolo[1,5-c]pyrimidin-5(6H)-one]	>7
COc1ccc(Cn2c(=O)n3ncnc3c3c4c(sc32)CN(CCCS(C)(=O)=O)CC4)cc1 [Example 118, 6-(4-Methoxybenzyl)-9-(3-(methylsulfonyl)propyl)-8,9,10,11-tetrahydropyrido[4′,3′:4,5]thieno[3,2-e][1,2,4]triazolo[1,5-c]pyrimidin-5 (6H)-one]	>7
COc1ccc(Cn2c(=O)n3ncnc3c3c4c(sc32)CN(Cc2ccncn2)CC4)cc1 [Example 119, 6-(4-Methoxybenzyl)-9-(pyrimidin-4-ylmethyl)-8,9,10,11-tetrahydropyrido[4′,3′:4,5]thieno[3,2-e][1,2,4]triazolo[1,5-c]pyrimidin-5(6H)-one]	>7
COc1ccc(Cn2c(=O)n3ncnc3c3c4c(sc32)CN(Cc2ccccn2)CC4)cc1 [Example 120, 6-(4-Methoxybenzyl)-9-(pyridin-2-ylmethyl)-8,9,10,11-tetrahydropyrido[4′,3′:4,5]thieno[3,2-e][1,2,4]triazolo[1,5-c]pyrimidin-5 (6H)-one]	>7
COc1ccc(Cn2c(=O)n3ncnc3c3c4c(sc32)CN(Cc2ccncc2)CC4)cc1 [Example 121, 6-(4-Methoxybenzyl)-9-(pyridin-4-ylmethyl)-8,9,10,11-tetrahydropyrido[4′,3′:4,5]thieno[3,2-e][1,2,4]triazolo[1,5-c]pyrimidin-5(6H)-one]	>7
COc1ccc(Cn2c(=O)n3ncnc3c3c4c(sc32)CN(Cc2nccn2C)CC4)cc1 [Example 122, 6-(4-Methoxybenzyl)-9-((1-methyl-1H-imidazol-2-yl)methyl)-8,9,10,11-tetrahydropyrido[4′,3′:4,5]thieno[3,2-e][1,2,4]triazolo[1,5-c]pyrimidin-5(6H)-one]	>7
COc1ccc(Cn2c(=O)n3ncnc3c3c4c(sc32)CN(Cc2scnc2C)CC4)cc1 [Example 123]	>7
COc1ccc(Cn2c(=O)n3ncnc3c3c4c(sc32)CN(CC2COCCO2)CC4)cc1 (stereo not drawn) [Example 125, 9-((1,4-Dioxan-2-yl)methyl)-6-(4-methoxybenzyl)-8,9,10,11-tetrahydropyrido[4′,3′:4,5]thieno[3,2-e][1,2,4]triazolo[1,5-c]pyrimidin-5(6H)-one]	>7
COc1ccc(Cn2c(=O)n3ncnc3c3c4c(sc32)CN(CC2CCC(=O)O2)CC4)cc1 (stereo not drawn) [Example 126]	>7
COc1ccc(Cn2c(=O)n3ncnc3c3c4c(sc32)CN(Cc2ccc(F)cc2)CC4)cc1 [Example 127, 9-(4-Fluorobenzyl)-6-(4-methoxybenzyl)-8,9,10,11-tetrahydropyrido[4′,3′:4,5]thieno[3,2-e][1,2,4]triazolo[1,5-c]pyrimidin-5(6H)-one]	>7
COc1ccc(Cn2c(=O)n3ncnc3c3c4c(sc32)CN(Cc2ccccc2F)CC4)cc1 [Example 128, 9-(2-Fluorobenzyl)-6-(4-methoxybenzyl)-8,9,10,11-tetrahydropyrido[4′,3′:4,5]thieno[3,2-e][1,2,4]triazolo[1,5-c]pyrimidin-5(6H)-one]	>7
O=c1n(Cc2ccc(Cl)cc2F)c2sc3c(c2c2ncnn12)CCN(Cc1ccccn1)C3 [Example 130, 6-(4-Chloro-2-fluorobenzyl)-9-(pyridin-2-ylmethyl)-8,9,10,11-tetrahydropyrido[4′,3′:4,5]thieno[3,2-e][1,2,4]triazolo[1,5-c]pyrimidin-5 (6H)-one]	>7
Cn1ccnc1CN1CCc2c(sc3c2c2ncnn2c(=O)n3Cc2ccc(Cl)cc2F)C1 [Example 131]	>7
O=c1n(Cc2ccc(Cl)cc2F)c2sc3c(c2c2ncnn12)CCN(Cc1ncccn1)C3 [Example 132, 6-(4-Chloro-2-fluorobenzyl)-9-(pyrimidin-2-ylmethyl)-8,9,10,11-tetrahydropyrido[4′,3′:4,5]thieno[3,2-e][1,2,4]triazolo[1,5-c]pyrimidin-5 (6H)-one]	>7
COc1ccc(Cn2c(=O)n3ncnc3c3c4c(sc32)CN(CC2CCCOC2)CC4)cc1 (stereo not drawn) [Example 134, 6-(4-Methoxybenzyl)-9-((tetrahydro-2H-pyran-3-yl)methyl)-8,9,10,11-tetrahydropyrido[4′,3′:4,5]thieno[3,2-e][1,2,4]triazolo[1,5-c]pyrimidin-5(6H)-one]	>7
COc1ccc(Cn2c(=O)n3ncnc3c3c4c(sc32)CN(CC2CCCOC2)CC4(F)F)cc1 (stereo not drawn) [Example 136, 11,11-Difluoro-6-(4-methoxybenzyl)-9-((tetrahydro-2H-pyran-3-yl)methyl)-8,9,10,11-tetrahydropyrido[4′,3′:4,5]thieno[3,2-e][1,2,4]triazolo[1,5-c]pyrimidin-5(6H)-one]	>7
COc1ccc(Cn2c(=O)n3ncnc3c3c4c(sc32)CN(Cc2ncccn2)CC4)c(F)c1 [Example 137, 6-(2-Fluoro-4-methoxybenzyl)-9-(pyrimidin-2-ylmethyl)-8,9,10,11-tetrahydropyrido[4′,3′:4,5]thieno[3,2-e][1,2,4]triazolo[1,5-c]pyrimidin-5 (6H)-one]	>7
COc1ccc(Cn2c(=O)n3ncnc3c3c4c(sc32)CN(Cc2nccn2C)CC4)c(F)c1 [Example 138, 6-(2-Fluoro-4-methoxybenzyl)-9-((1-methyl-1H-imidazol-2-yl)methyl)-8,9,10,11-tetrahydropyrido[4′,3′:4,5]thieno[3,2-e][1,2,4]triazolo[1,5-c]pyrimidin-5(6H)-one]	>7
COc1ccc(Cn2c(=O)n3ncnc3c3c4c(sc32)CN(Cc2ccccn2)CC4)c(F)c1 [Example 139, 6-(2-Fluoro-4-methoxybenzyl)-9-(pyridin-2-ylmethyl)-8,9,10,11-tetrahydropyrido[4′,3′:4,5]thieno[3,2-e][1,2,4]triazolo[1,5-c]pyrimidin-5 (6H)-one]	>7
COc1ccc(Cn2c(=O)n3ncnc3c3c4c(sc32)CN(CC2CCOC2)CC4)c(F)c1 (stereo not drawn) [Example 140, 6-(2-Fluoro-4-methoxybenzyl)-9-((tetrahydrofuran-3-yl)methyl)-8,9,10,11-tetrahydropyrido[4′,3′:4,5]thieno[3,2-e][1,2,4]triazolo[1,5-c]pyrimidin-5(6H)-one]	>7
COc1ccc(Cn2c(=O)n3ncnc3c3c4c(sc32)CN(CC2CCCOC2)CC4)c(F)c1 (stereo not drawn) [Example 142, 6-(2-Fluoro-4-methoxybenzyl)-9-((tetrahydro-2H-pyran-3-yl)methyl)-8,9,10,11-tetrahydropyrido[4′,3′:4,5]thieno[3,2-e][1,2,4]triazolo[1,5-c]pyrimidin-5(6H)-one]	>7
COc1ccc(Cn2c(=O)n3ncnc3c3c4c(sc32)CN(CC2CCOC2)CCC4)cc1 (stereo not drawn) [Example 143, 6-(4-Methoxybenzyl)-9-((tetrahydrofuran-3-yl)methyl)-6,8,9,10,11,12-hexahydro-5H-[1,2,4]triazolo[1″,5″:1%6′]pyrimido[5′,4′:4,5]thieno[2,3-c]azepin-5-one]	>7
COc1ccc(Cn2c(=O)n3ncnc3c3c4c(sc32)CN(Cc2nccn2C)CCC4)cc1 [Example 144, 6-(4-Methoxybenzyl)-9-((1-methyl-1H-imidazol-2-yl)methyl)-6,8,9,10,11,12-hexahydro-5H-[1,2,4]triazolo[1″,5″:1′,6′]pyrimido[5′,4′:4,5]thieno[2,3-c]azepin-5-one]	>7
